Data on one compound can be found in US7595330B2, “Benzimidazole thiophene compounds” (SmithKline Beecham Corporation, priority 2005, dated 2009).

A value given as a limit tells only on which side of the number the result lay.

By IC50 is commonly meant the midpoint of a concentration-inhibition curve.

Common to all, as to format: cell-based
For experiment [1], the system named is HCT116. The experiment in a line: Methylene blue growth inhibition assay, HCT116. The conditions noted are these: Homo sapiens, HCT-116; methylene blue, 72 h, HCT116; read-out: HCT116 IC50. The method in brief:
(§1)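 Tumour lines and HFF, plated at cell-line-specific densities in DMEM with 10% FBS, were exposed next day to compound (final DMSO 0.3%) for 72 h at 37 °C. Biomass was stained with methylene blue, solubilized in 1% N-lauroyl sarcosine and read at OD 620 nm; percent growth inhibition was calculated against vehicle controls.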

For experiment [2], the system named is H460. Put plainly: Methylene blue growth inhibition assay, H460. The note with it: Homo sapiens, NCI-H460; methylene blue, 72 h, H460; read-out: H460 IC50. A digest of the protocol: as §1
The test system of experiment [3] is MCF7. Put plainly: Methylene blue growth inhibition assay, MCF7. The note with it: Homo sapiens; methylene blue, 72 h, MCF7; read-out: MCF7 IC50. The method in brief: as §1
Experiment [4] has as its system A549. The experiment in a line: Methylene blue growth inhibition assay, A549. The note with it: Homo sapiens; methylene blue, 72 h, A549; read-out: A549 IC50. The method in brief:
as §1

In experiment [5] the test system is COLO205. Put plainly: Cell-Titer-Glo inhibition of cell proliferation, COLO205. The conditions noted are these: Homo sapiens, COLO 205, CellTiter-Glo, 72 h. The procedure: (§2) V. Cell-Titer-Glo—Inhibition of Cell Proliferation by PLK1 Inhibitors
(§3) Exponentially growing cell lines of different tumor origins, cultured in appropriate media containing 10% fetal bovine serum at 37° C. in a 5% CO2 incubator were plated at low density (less than 2000 cells/well) in 96-well plates. Twenty four hours post-plating, cells were treated with different concentrations of test compounds ranging from 10 uM to 0.04 nM. Several wells were left untreated as a control. Seventy two hours post-treatment, cell numbers were determined using 50-100 ul per well of CellTiter-Glo (Promega #G7573). Plates were incubated at room temperature for 15 minutes and the chemiluminescent signal was read on the Victor V or Envison 2100 reader.
(§4) The Cell-Titer Glo data are shown in Table 2 below and represent a compilation of several different experiments, each performed using the general parameters outlined above, although minor variations may have been employed in some instances.

Experiment [6] has as its system MX-1. Put plainly: Cell-Titer-Glo inhibition of cell proliferation, MX-1. The note with it: Homo sapiens, MX1, CellTiter-Glo, 72 h. The procedure: as §2, §3, §4
For experiment [7], the system named is SKOV-3. The experiment in a line: Cell-Titer-Glo inhibition of cell proliferation, SKOV-3. The conditions noted are these: Homo sapiens, SK-OV-3, CellTiter-Glo, 72 h. The procedure: as §2, §3, §4
(In general: ATP-based viability assays read luminescence as a measure of living cells.)

For experiment [8], the system named is LNCaP. Put plainly: Cell-Titer-Glo inhibition of cell proliferation, LNCaP. The conditions noted are these: Homo sapiens, CellTiter-Glo, 72 h. The procedure: as §2, §3, §4
Experiment [9] relates to P388. Put plainly: Cell-Titer-Glo inhibition of cell proliferation, P388. The note with it: Mus musculus, CellTiter-Glo, 72 h. The procedure: as §2, §3, §4
For experiment [10], the system named is Hela. The experiment in a line: Cell-Titer-Glo inhibition of cell proliferation, Hela. The conditions noted are these: Homo sapiens, CellTiter-Glo, 72 h. The procedure:
as §2, §3, §4

Experiment [11] concerns HN5. Put plainly: Cell-Titer-Glo inhibition of cell proliferation, HN5. The note with it: Homo sapiens, CellTiter-Glo, 72 h. The procedure:
as §2, §3, §4

The subject of experiment [12] is MV522. Put plainly: Cell-Titer-Glo inhibition of cell proliferation, MV522. The conditions noted are these: CellTiter-Glo, 72 h. The procedure: as §2, §3, §4
Experiment [13] has as its system ASPC3. Put plainly: Cell-Titer-Glo inhibition of cell proliferation, ASPC3. The note with it: CellTiter-Glo, 72 h. The procedure: as §2, §3, §4

For the compound `C[C@@H](Oc1cc(-n2cnc3ccc(CN4CCN(C)CC4)cc32)sc1C(N)=O)c1ccccc1C(F)(F)F` [Example 3, 5-{6-[(4-Methylpipiperazin-1-yl)methyl]-1H-benzimidazol-1-yl}-3-{(1R)-1-[2-(trifluoromethyl)phenyl]ethoxy}thiophene-2-carboxamide], the concentration for half-maximal inhibition (IC50) in experiment [1] was less than 100 nM; in experiment [2] it was less than 100 nM; in experiment [3], less than 100 nM; in [4], less than 100 nM; in experiment [5], less than 500 nM; in experiment [6] it was less than 500 nM. Moreover, the IC50 in experiment [7], in [8], in [9], in [10], in [11] and in [12] was less than 500 nM in each case. Further, in experiment [13], the half-inhibitory concentration (IC50) was less than 500 nM.
